Measurements as given in PMC6562844, “A Basic Study of Photodynamic Therapy with Glucose-Conjugated Chlorin e6 Using Mammary Carcinoma Xenografts” (Cancers, 2019).
Where a SMILES comes first, the peptide text is derived from it. The star is where a group is joined. Cbz = O=C(OCc1ccccc1)*; CH2F = FC*

What was measured:
SNP cells [1] = assay: Effect of a pan-caspase inhibitor on G-Ce6-PDT-induced cell death; type: cell-based, canine; conditions: 10 μM Z-VAD-FMK; 8 μg/mL G-Ce6; 5 J/cm^2
Procedure: SNP cells were incubated with 8 μg/mL G-Ce6 for 24 h in the presence (10 μM) or absence of Z-VAD-FMK (Medical & Biological Laboratories Co. Ltd., Aichi, Japan), which is a pan-caspase inhibitor. After washing with fresh media, the cells were irradiated with 650-nm laser light (10 mW/cm^2, 5 J/cm^2) emitted by a semiconductor laser, using an optical fiber with a microlens delivery attachment. Apoptosis was assessed at 4 h after laser irradiation using the Muse Annexin V and Dead Cell Assay kit.

[2] = design: method as in earlier work; conditions: cited from earlier work
SNP cells [3] = assay: Photodynamic cytotoxicity in SNP cells (Cell Counting Kit-8); type: cell-based, canine; conditions: 24 h incubation, 650-nm laser 10 mW/cm^2, viability 24 h after PDT
Procedure: We seeded 1 × 10^4 SNP cells into each well of 96-well plates (Corning Inc., New York, NY, USA) followed by overnight incubation. Cells were then incubated with various concentrations of G-Ce6 for 24 h at 37 °C. After washing with fresh media, the cells were irradiated with 650-nm light emitted by a semiconductor laser (Osada Electric Co., Ltd., Tokyo, Japan), using an optical fiber with a micro-lens delivery attachment (Pioneer Optics, Inc., Windsor Lock, CT, USA). PDT was performed at 10 mW/cm^2 in cells exposed to six concentrations of NPe6 and G-Ce6 (0, 0.064, 0.32, 1.6, 8.0, or 40.0 μg/mL) using four light doses (0, 1, 5, or 15 J/cm^2). The cells were then incubated for 24 h in the dark prior to examining cell viability using the Cell Counting Kit-8 (Dojindo, Kumamoto, Japan), according to the manufacturer’s instructions.

For COC(=O)C[C@H](NC(=O)[C@H](C)NC(=O)[C@@H](NC(=O)OCc1ccccc1)C(C)C)C(=O)CF [Z-VAD-FMK, reference compound] (Cbz-Val-Ala-Asp(OMe)-CH2F), the “Influence on number of Annexin V-positive cells and cytotoxicity induced by G-Ce6-mediated PDT” value (SNP cells [1]) was “did not influence”.
In the case of porfimer sodium, the AUC [2] is given as 1670.2 ± 71.6 µg·h/mL and the T1/2 [2] is given as 44.22 ± 8.10 h.
For C=Cc1c(C)c2cc3nc(c(CC(=O)N[C@@H](CC(=O)[O-])C(=O)[O-])c4[nH]c(cc5nc(cc1[nH]2)C(C)=C5CC)c(C)c4C(=O)[O-])[C@@H](CCC(=O)[O-])[C@@H]3C.[Na+].[Na+].[Na+].[Na+] [NPe6, mono-L-aspartyl chlorin e6, reference compound], the “IC50 against SNP cells” value (SNP cells [3]; light dose 1 J/cm^2) was 75.2 µg/mL, the “IC50 against SNP cells” value (SNP cells [3]; light dose 5 J/cm^2) was 30.4 µg/mL and the “IC50 against SNP cells” value (SNP cells [3]; light dose 15 J/cm^2) was 30.6 µg/mL.
